Source: ChEMBL document CHEMBL1201862, “PubChem BioAssay data set” (2004)
Calls of active or inactive are those of the source.

Tests used:
[1] = THP-1 cell cytotoxicity, dose response, cytotoxicity control for Vif-APOBEC3G degradation inhibitor project, THP-1 cells (AID 1117359); assay type: functional; conditions: Human immunodeficiency virus 1, THP-1
[2] = P. falciparum 3D7-ScDHODH growth inhibitors, dose response, SYBR Green, dry powder samples (AID 1159570); assay type: functional, cell-based;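 note: parasite growth measured after 72 hours of compound exposure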
[3] = HepG2 cell cytotoxicity, dose response, cytotoxicity control, plate reader, dry powder samples (AID 1159569); assay type: functional, cell-based;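 note: inhibitor potency with signal falling toward the positive control level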
[4] = P. falciparum Dd2 growth inhibitors, dose response, SYBR Green, cherry-picked samples (AID 1159567); assay type: functional, cell-based
[5] = P. falciparum Dd2 growth inhibitors, dose response, SYBR Green, dry powder samples (AID 1159566); assay type: functional, cell-based;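 note: potency for growth inhibition with lower SYBR green DNA signal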
[6] = P. falciparum ATP4 D1247Y mutant growth inhibitors, dose response, NITD609-resistant line, SYBR Green, dry powder (AID 1159571); assay type: functional, cell-based;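 note: parasites synchronized at ring stage by sorbitol before testing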
[7] = HepG2 cell cytotoxicity, dose response, cytotoxicity control, cherry-picked samples (AID 1159577); assay type: functional, cell-based

Structure (SMILES)	CC50 [1]	AC50 [2]	AC50 [3]	AC50 [4]	AC50 [5]	AC50 [6]	AC50 [7]
NCCC(=O)N1c2ccccc2Sc2ccccc21	> 40 µM (active)	–	–	–	–	–	–
CCCN1[C@H](CO)[C@H](c2ccc(C3=CCCC3)cc2)[C@H]1CN(C(C)=O)C1CCCC1	–	3.26 µM (active)	72.1 µM (active)	1.92 µM (active)	1750 nM (active)	1.6 µM (active)	–
OC[C@@H]1Nc2ccc(C#Cc3cccc(F)c3)cc2[C@H]2NCC[C@@H]12	–	1.15 µM (active)	17.5 µM (active)	3.01 µM (active)	804 nM (active)	2.34 µM (active)	25.6 µM (active)
N#C[C@@H]1[C@@H](c2ccccc2C2=CCCC2)[C@@H](CO)N1C(=O)NC1CCCC1	–	10.9 µM (active)	56.8 µM (active)	0.791 µM (active)	592 nM (active)	0.744 µM (active)	–
COc1ccc(C#Cc2cccc(-c3nc(C(=O)Nc4ccc(-c5ccccc5)cc4)cc4c3[C@@H](CCO)N([S+]([O-])C(C)(C)C)C4)c2)cc1OC (stereo partly specified)	–	1.12 µM (active)	24.1 µM (active)	0.995 µM (active)	486 nM (active)	0.621 µM (active)	> 39 µM (inactive)
C[C@H](CO)N1C[C@H](C)[C@@H](CN(C)C(=O)CCCN(C)C)OCc2cnnn2CCCC1=O	–	–	–	–	–	–	> 42 µM (inactive)
COc1cccc(CN2C[C@@H]3N[C@H](C2)[C@@H]3c2ccc(-c3ccc(C#N)cc3)cc2)c1	–	–	–	3.09 µM (active)	–	–	9.63 µM (active)
